Measurements published in paper PMC3968527, “Dynamic mass redistribution analysis of endogenous β-adrenergic receptor signaling in neonatal rat cardiac fibroblasts” (Pharmacology Research & Perspectives, 2014).
Read-outs that look alike come from different tables or passages of the source.

Assays:
dynamin = test system: dynamin; set-up: method as in Kirchhausen et al. [2008]; conditions: known/reported IC50; ref Kirchhausen et al. [2008]; cited from earlier work
[1] = test system: endogenous βAR in primary neonatal rat cardiac fibroblasts (NRCF); experiment: Dynamic mass redistribution (DMR) response to βAR ligands in NRCF; format: cell-based; conditions: for EC50: read-out: EC50 (DMR)
cAMP generation in NRCF = experiment: FRET detection of cAMP generation using ICUE3 in NRCF; format: cell-based, rat; conditions: for effect on ISO-induced FRET (cAMP generation): antagonist 10 μmol/L, ISO 1 μmol/L
Method: ICUE3 adenovirus (Ad-ICUE3) was generously supplied by Dr. Yang Xiang (UC Davis). NRCF were seeded in the fibronectin-coated 10 mm glass-bottom insert of 35 mm dishes (MatTek Corporation, Ashland, MA) at 5 × 10^4 cells/10 mm insert and infected with Ad-ICUE3 at a multiplicity of infection (MOI) of 40 for 24 h with or without CTX addition (100 ng/mL overnight). 24 h after infection, the cells were rinsed and media replaced with imaging buffer, as previously described (Tilley et al. [2010]), prior to imaging using a Leica DMI4000B inverted microscope with a Leica DFC365 FX 1.4-megapixel monochrome digital camera with cyan fluorescent protein (CFP) excitation and CFP and yellow fluorescent protein (YFP) emissions measured every 2 sec. Cells were pretreated for 5 min with buffer or antagonists then, following 30 sec of baseline reads, the cells were stimulated with isoproterenol. The entire field-of view at 20× magnification was used to capture changes in fluorescence resonance energy transfer (FRET) in the NRCF population and each treatment condition was performed independently at least three times. Quantification of the ICUE3 ratio was calculated as changes in CFP emission/YFP emission over time, normalized to baseline.
EC50 and Emax values were attained via nonlinear regression curve fitting of the DMR, ICUE3, or EGFR internalization responses using Prism 5.0 software (GraphPad Software Inc.; San Diego, CA). Statistical analyses were performed using a one-way analysis of variance (ANOVA) followed by a Newman–Keuls multiple comparisons test or a two-tailed unpaired t-test, as appropriate. A value of P < 0.05 was considered statistically significant.

Flag-EGFR-mYFP = experiment: EGFR internalization, on-cell western for loss of surface Flag-EGFR-mYFP in NRCF; format: cell-based, rat; conditions: Fig. 7C, 60 min treatment
Method: NRCF were seeded either in 35 mm glass-bottom dishes as described above or in clear-bottom black-walled 96-well plates (655090; Greiner Bio-One, Monroe, NC) at 3 × 10^4 cells/well and infected with Ad-Flag-EGFR-mYFP (constructed at Vector Biolabs, Philadelphia, PA) at an MOI of 200 for 24 h prior to stimulation with agonist as indicated. After 1 h, cells were fixed in 4% paraformaldehyde (163201145; Wako Chemicals, Richmond, VA) for 20 min, rinsed with phosphate-buffered saline (Corning/Cellgro, 21-030-CV) and on-cell western staining (nonpermeabolized) was performed using anti-Flag M2 antibody (1:1000, 3 h at RT, Sigma, F1804), IRDye® 800CW Conjugated Goat (polyclonal) Anti-mouse secondary antibody (1:1000, 1 h at RT, LI-COR, 926-32210) and DRAQ5 (1:5000, 1 h at RT, Cell Signaling Technology, #4084) following the LI-COR on-cell protocol. Flag and DRAQ5 signals were detected using Odyssey CLx infrared imaging system (LI-COR Biosciences, Lincoln, NE) and YFP signal was measured with a Tecan M1000 plate reader. Amount of EGFR internalization was calculated by normalizing the Flag signal to both the DRAQ5 (cell number control) and YFP (infection control) signals: Flag/DRAQ5/YFP. […] San Diego, CA). Statistical analyses were performed using a one-way analysis of variance (ANOVA) followed by a Newman–Keuls multiple comparisons test or a two-tailed unpaired t-test, as appropriate. […]

EGFR in NRCF = experiment: EGFR-dependent DMR response to EGF in NRCF; format: cell-based, rat
[2] = antagonist 10 μmol/L, ISO 100 nmol/L
[3] = βAR antagonist alone, positive-deflected DMR (inverse agonism)
[4] = Rattus norvegicus, Cardiac fibroblast, agonist + buffer, 3-day-old NRCF
[5] = agonist + buffer, 3-day-old NRCF
[6] = agonist + cholera toxin (100 ng/mL)
[7] = agonist + propranolol (1 μmol/L)

In the case of O=C(N/N=C/c1ccc(O)c(O)c1)c1cc2ccccc2cc1O [Dyn, dynasore], the IC50 (dynamin) is listed as 15000 nM and the “effect on ISO-mediated DMR effect” value ([1]; Dyn pretreatment 100 μmol/L, 30 min) is listed as “enhanced”.
For Cc1ccc(OCC(O)C(C)NC(C)C)c2c1CCC2 (stereo not shown) [ICI 188,551, ICI 118,551], the “effect on ISO-induced FRET (cAMP generation)” value (“effect on ISO-induced FRET” for short) (cAMP generation in NRCF) was “significantly blocked”, the “effect on ISO-mediated DMR effect” value [1, 2] was “very significantly reduced” and the “Emax (DMR)” value [1, 3] was 117.3 ± 5.4 pm. The EC50 [1, 3] was 192 ± 61.7 nM.
For CC(C)(C)NCC(O)c1ccc(O)c(CO)c1 (stereo not shown) [Salbutamol, salbutamol], the EC50 [1, 4] was 15.6 ± 0.8 nM, the “Emax (DMR)” value [1, 5] was −257.1 ± 1.8 pm and the “Emax (DMR)” value [1, 6] was −122.4 ± 2.1 pm. For the same molecule, the “Emax (DMR)” value [1, 7] was −251.9 ± 6.3 pm and the EC50 [1, 6] was 30.1 ± 4.9 nM.
In the case of Cn1cc(C(F)(F)F)nc1-c1ccc(OCC(O)CNCCOc2ccc(O)c(C(N)=O)c2)cc1 (stereo not shown) [CGP 20712A], the “effect on ISO-induced FRET” value (cAMP generation in NRCF) is reported as “partial blockade”, the “DMR response of antagonist alone” value ([1]; 100 μmol/L, likely due to a toxic effect on the cells) is reported as “extreme positive DMR deflection” and the “effect on ISO-mediated DMR effect” value [1, 2] is reported as “very small, though significant, decrease”.
With CC(C)NCC(O)c1ccc(O)c(O)c1 (stereo not shown) [Isoproterenol] the EC50 (cAMP generation in NRCF; Rattus norvegicus, Fig. 5B) was 7.4 ± 5.6 nM, the “Emax (DMR)” value ([1]; 8-day-old NRCF, Fig. 1D) was −40 ± 5.3 pm and the “ISO DMR response, % of the response attained with 2.5 × 10^4 cells” value ([1]; ISO 100 nmol/L, 1 × 10^4 cells per well) was about 25%. For the same molecule, the “ISO DMR response, % of the response attained with 2.5 × 10^4 cells” value ([1]; ISO 100 nmol/L, 1.5 × 10^4 cells per well) was about 50%, the EC50 [1, 4] was 15.4 ± 4.2 nM and the “Emax (DMR)” value [1, 5] was −266.1 ± 8.2 pm. The “Emax (DMR)” value [1, 6] was −109.6 ± 6.4 pm, the “Emax (DMR)” value [1, 7] was −247.6 ± 4.3 pm and the EC50 [1, 7] was 809 ± 84.1 nM. For the same molecule, the EC50 [1, 6] was 30.1 ± 17.4 nM and the EC50 (Flag-EGFR-mYFP) was 17.1 ± 5.5 nM.
With cholera toxin [CTX] the “effect on ISO-dependent cAMP generation” value (cAMP generation in NRCF) was “substantially reduced”, the “ISO-induced DMR response after pretreatment, % of the buffer-pretreated ISO response” value [1] was about 35% and the “reduction of the ISO DMR response” value [1] was about 65%.
With COc1ccc(C2CNC(=O)C2)cc1OC1CCCC1 (stereo not shown) [Rol, rolipram] the “effect on ISO-mediated ICUE3 response” value (cAMP generation in NRCF; Rol 10 nmol/L) was “significantly enhanced” and the “effect on ISO-mediated DMR response” value ([1]; Rol 10 nmol/L) was “significantly enhanced”.
Work on epidermal growth factor [EGF] yielded an EC50 (EGFR in NRCF; Fig. S2D, read-out: EC50 (positive-deflected DMR)) of under 1 nM and an EC50 (EGFR in NRCF; printed in picture of Fig. S2D, read-out: EC50 (peak DMR)) of 0.45 ± 0.03 nM.
In the case of CC(C)NCC(O)COc1cccc2ccccc12 (stereo not shown) [Propranolol, propranolol], the “effect on ISO-induced FRET” value (cAMP generation in NRCF) is reported as “significantly blocked”, the “effect on ISO-mediated DMR effect” value [1, 2] is reported as “very significantly reduced” and the “Emax (DMR)” value [1, 3] is reported as 81.2 ± 2.5 pm.
For COc1cc2ncnc(Nc3ccc(F)c(Cl)c3)c2cc1OCCCN1CCOCC1 [Gef, gefitinib], the “ISO-induced DMR response after pretreatment, % of the buffer-pretreated ISO response” value ([1]; ISO 100 nmol/L, CTX 100 ng/mL overnight, Gef 1 μmol/L) was about 65% and the “reduction of the ISO DMR response” value ([1]; ISO 100 nmol/L, CTX 100 ng/mL overnight, Gef 1 μmol/L, Fig. 7F) was about 35%.
For CC(CCc1ccc(O)cc1)NCCc1ccc(O)c(O)c1 (stereo not shown) [Dobutamine], the “DMR responses in presence of Prop” value ([1]; Prop 1 μmol/L) was “completely blocked”, the EC50 [1, 4] was 134 ± 11.7 nM and the “Emax (DMR)” value [1, 5] was −217.1 ± 3.5 pm. The “Emax (DMR)” value [1, 6] was −86.0 ± 3.4 pm, the “maximal DMR response, % of the ISO and Sal responses” value ([1]; at micromolar concentrations) was about 75% and the EC50 [1, 6] was 50 ± 16.8 nM.
